Experiments:
Format in all cases: cell-based, human
[1] = system: aHDFs into which F, T, L, and K had been introduced; assay: examination of medium components (modified Uromedium) for selective proliferation of dUCs; conditions: for influence of concentration of the component on UPK2 mRNA: Uromedium with modified concentration
Method: (A) aHDFs into which F, T, L, and K had been introduced were cultured in “Uromedium” medium with modified concentrations of insulin, hydrocortisone, EGF, and IBMX. On Day 21, total RNA was extracted from aHDFs and control aHDFs free of gene introduction, and the gene expression level of UPK2 was measured by real-time RT-PCR. The values shown by mean±SD were normalized by β-actin mRNA expression and shown relative to the value of aHDFs free of gene introduction as 1.0 (N=3). (B) Phase-contrast microscopic images of aHDFs into which F, T, L, and K were introduced, and cultured for 21 days in “Uromedium” medium in which the concentration of hydrocortisone was modified to 0-fold and the concentration of IBMX was modified to 10-fold. Imaging magnification: ×10 (C) Phase-contrast microscopic images of aHDFs into which F, T, L, and K were introduced, and cultured for 21 days in “Uromedium” medium with or without addition of 1 μM tranylcypromine. The bar is 100 μm. (D) Phase-contrast microscopic images of aHDFs into which F, T, L, and K were introduced or not introduced, and cultured for 21 days in “Uromedium” medium or “UCM” medium. The bar is 100 μm.
“Uromedium” medium was produced according to the method of Osborn et al. (Osborn S L, (2014) Stem Cell Transl Med 3(5):610-619.). In summary fashion, the “Uromedium” medium is composed of EpiLife™ medium supplemented with 60 μM calcium (Gibco; MEP1500CA), 60 μg/mL bovine brain hypophysis extract (Gibco), 5 μg/mL human gene recombinant insulin (Diagnocine), 500 ng/mL hydrocortisone (Tokyo Chemical Industry Co., Ltd.), gentamicinamphotericin (Gibco), 2% FBS, 0.1 ng/mL human gene recombinant epidermal growth factor (EGF) (RSD), and 100 μM 3-isobutyl 1-methylxanthine (IBMX) (Sigma-Aldrich).
The “UCM” medium is composed of EpiLife™ medium supplemented with 60 μM calcium, 60 μg/mL bovine brain hypophysis extract, 5 μg/mL human gene recombinant insulin, gentamicinamphotericin, 2% FBS, 0.01 ng/mL human gene recombinant EGF, 1 mM IBMX, and 1 μM tranylcypromine (Abcam).

aHDFs [2] = assay: real-time RT-PCR of marker mRNA in aHDFs after retroviral gene introduction; conditions: F, T, L, K-introduced aHDFs; plates uncoated or coated with collagen, poly-L-lysine, laminin; day 21
Method: (§1) aHDFs were seeded on a laminin-coated 12-well plate or a laminin-uncoated 12-well plate, and the gene was introduced using a retroviral vector. The cells were cultured in CnT-Prime medium or other medium, and 21 days later, observation with a phase contrast microscope, real-time PCR, and analysis of immunocytochemistry were performed. The cells were passaged in fresh culture plates and used for RNA sequencing and penetration assay. In the in vivo experiment, cells into which F, T, L, and K had been introduced were transurethrally transplanted into the injured bladder cavity of an interstitial cystitis mouse through a catheter.
(§2) aHDFs were seeded in 12-well plates coated with atelocollagen (KOKEN; I-PC30), poly-L-lysine (ScienCell), or laminin (Easy iMatrix-511 silk) at a density of 3×10^4 cells/well. After 24 hr, the medium was replaced with the retroviral suspension that was filtrated through a 0.45 μm pore filter (Toyo Roshi Kaisha, Ltd., ADVANTEC) and supplemented with 4 μg/mL polybrene. The next day, the culture supernatant was replaced with Standard Medium free of virus, and replaced with CnT-Prime or “UCM” medium 3 days later. The culture medium was changed every 3 or 4 days.
Total RNA was extracted using RNeasy Mini Kit (Qigen) according to the manufacturer's protocol. […] The relative mRNA expression levels were calculated from the following formula: […]

aHDFs [3] = assay: epithelial (urothelial) cell colony formation, phase contrast microscope observation; conditions: F, T, L, K-introduced aHDFs; plates uncoated or coated with collagen, poly-L-lysine, laminin; day 21
Method: as §1, §2

## N[C@@H]1C[C@H]1c1ccccc1 (racemic) [tranylcypromine]
[1]; Uromedium with addition of 1 μM tranylcypromine, 21 days
  formation of urothelial cell colonies: enhanced

## CC(C)Cn1c(=O)n(C)c(=O)c2[nH]cnc21 [IBMX, 3-isobutyl 1-methylxanthine]
[1]; 1-10 mM IBMX in Uromedium, day 21
  expression of UPK2 mRNA: played a beneficial role
[1]; medium containing 10 mM IBMX, 21 days
  epithelial cell colony formation: form epithelial cell colonies

## C[C@]12CCC(=O)C=C1CC[C@@H]1[C@@H]2[C@@H](O)C[C@@]2(C)[C@H]1CC[C@]2(O)C(=O)CO [hydrocortisone]
[1]; day 21
  influence of concentration of the component on UPK2 mRNA: not definitive

## EGF: human gene recombinant epidermal growth factor
[1]; addition of 0.01-1 ng/mL EGF, day 21
  mRNA expression of UPK2: increased

## insulin: human gene recombinant insulin
[1]; day 21
  influence of concentration of the component on UPK2 mRNA: not definitive

## laminin
aHDFs [2]
  expression of UPK1b and UPK2 mRNAs by plate coating: the highest
aHDFs [3]
  epithelial cell colony formation by plate coating: formed only in laminin-coated plates

Reference: patent US20220298486A1, “UROTHELIAL CELL INDUCTION AGENT AND METHOD FOR INDUCING UROTHELIAL CELLS” (CellAxia Inc, priority 2019, published 2022)
